Assay results: article PMC7502707, “Characterization and validation of a preventative therapy for hypertrophic cardiomyopathy in a murine model of the disease” (Proceedings of the National Academy of Sciences of the …, 2020)
Marks after values point to notes of the source that are not given here.

Legend:
[1] = test system: myocytes isolated from wt and cTnI-G203S mice; test: Mitochondrial membrane potential (JC-1) in myocytes isolated from treated mice; assay type: in vivo, mouse
Experimental: (§5) Male mice expressing the human cTnI gene encoding the human disease-causing mutation cTnI-G203S were used for all studies. […] Male mice expressing the normal human cTnI gene were used as controls (wt). Ten-week-old mice were used for in vitro studies. For in vivo studies, 20- or 30-wk-old cTnI-G203S mice were treated with 10 μM AID-TAT or AID[S]-TAT via intraperitoneal injection, 3×/wk/5 wk. In vivo dose of AID-TAT or AID[S]-TAT (10 μM) was calculated based on blood volume, equating to ∼2 mg/kg total BW. Male animal models were used to eliminate potential differences in responses due to sex. Experiments were performed in a total of 21 wt (AID[S]-TAT), 6 wt (AID-TAT), 15 cTnI-G203S (AID[S]-TAT), and 26 cTnI-G203S (AID-TAT) mice. All animals were randomly assigned to treatment groups.
Fluorescence was measured on a Hamamatsu Orca ER digital camera attached to an inverted Nikon TE2000-U microscope. Fluorescent indicator 5,5′,6,6′-tetrachloro-1,1′,3,3′-tetraethylbenzimidazolylcarbocyanine iodide was used to measure Ψm in cardiac myocytes, as previously described (JC-1, Molecular Probes) ([61]). Autofluorescence was used to measure flavoprotein oxidation in cardiac myocytes based on previously described methods ([13], [29], [62]). Responses to drugs were reported as a percentage increase from the basal average.
Cells were incubated in calcium-free HBS (supplemented with 3 mM EGTA and 200 nM JC-1) for at least 3 h prior to measuring changes in m. Sodium cyanide (NaCN, 40 mM, mitochondrial electron transport blocker) was added at the end of each experiment to collapse m, confirming that the JC-1 signal was indicative of m.
Additionally, individual 580 nm and 535 nm wavelength signals were assessed in each experiment to determine whether the fluorescent indicator was accurately measuring m. Autofluorescence was used to measure flavoprotein oxidation in cardiac myocytes based on previously described methods (ex = 480 nm, em = 535 nm, interval = 1 min, exposure = 1.5 seconds) (4, 6, 7). Carbonyl cyanide-4-(trifluoromethoxy)phenylhydrazone (FCCP, 50 μM, mitochondrial electron transport chain uncoupler) was added at the end of each experiment to increase flavoprotein oxidation confirming signal was mitochondrial in origin. Ratiometric JC-1 or flavoprotein fluorescent signals were quantified by manually tracing myocytes and subtracting an equivalent background region
Responses to drugs were reported as a percentage increase from the basal average. […]

[2] = test system: myocytes isolated from wt and cTnI-G203S mice; test: MTT assay (formation of formazan) in myocytes isolated from treated mice; assay type: in vivo, mouse; conditions: for effect on metabolic activity (MTT): myocytes from wt or cTnI-G203S mice treated with AID(S)-TAT or AID-TAT, oligomycin 20 µM; for effect on BayK(−)-induced increase in metabolic activity (MTT): applied to myocytes from treated mice, nisoldipine 15 μM, Ru360 15 µM, dantrolene 20 µM
Experimental: The rate of reduction of MTT (Sigma-Aldrich) to formazan by the mitochondrial electron transport chain was measured in intact mouse cardiac myocytes, as previously described ([22], [25]). Each n represents number of replicates for each treatment group from cardiac myocytes isolated from a total of six wt [AID(S)-TAT], four cTnI-G203S [AID(S)-TAT], and three (AID-TAT) mice. Detailed methods are provided in SI Appendix. […]
The rate of reduction of 3-(4,5-Dimethyl-2-thiazolyl)-2,5-diphenyl-2H-tetrazolium bromide (MTT, Sigma-Aldrich, St. Louis, Missouri) to formazan by the mitochondrial electron transport chain was measured in intact mouse cardiac myocytes as previously described (1, 9). This reaction is dependent upon the presence of reduced nicotinamide adenine dinucleotide (NADH) and reduced nicotinamide adenine dinucleotide phosphate (NADPH), and intact mitochondrial electron transport (10). Cardiac myocytes were treated with relevant drugs in 96 well plates. MTT was added to each well to a final concentration of 0.5 mg/ml and the rate of the increase in absorbance immediately measured using a spectrophotometer at 37°C (PowerWave XS, 570 nm, reference wavelength of 620 nm). The rate of the increase in absorbance in response to treatments was expressed as a percentage of the rate of the increase prior to the addition of treatments. Each n represents number of replicates for each treatment group from cardiac myocytes isolated from a total of 6 wt (AID[S]- TAT), 4 cTnI-G203S (AID[S]-TAT), and 3 (AID-TAT) mice.
Immunoblot of ICa-L protein

[3] = test system: mice expressing β-MHC mutations; conditions: precardiomyopathic mice expressing β-MHC mutations, compared to untreated mutants; cited from earlier work
Text: Patients with HCM often present with early hypercontractility that stems from a high-degree of actin–myosin cross-linking ([36]). […] Recent studies have investigated the efficacy of a cardiac-specific small-molecule, Mavacamten (MYK-461), that inhibits β-MHC/actin binding and subsequently reduces sarcomere force output and contractility ([39], [40]), as a potential HCM therapeutic. Treatment of precardiomyopathic mice expressing β-MHC mutations with M ...

[4] = test system: myocytes isolated from wt and cTnI-G203S mice; test: Flavoprotein oxidation in myocytes isolated from treated mice; assay type: in vivo, mouse; conditions: applied to myocytes from treated wt or cTnI-G203S mice; nisoldipine 15 μM
Experimental: as §5
Fluorescence was measured on a Hamamatsu Orca ER digital camera attached to an inverted Nikon TE2000-U microscope. […]
Additionally, individual 580 nm and 535 nm wavelength signals were assessed in each experiment to determine whether the fluorescent indicator was accurately measuring m. […] Ratiometric JC-1 or flavoprotein fluorescent signals were quantified by manually tracing myocytes and subtracting an equivalent background region […]

[5] = test system: myocytes isolated from wt and cTnI-G203S mice; test: Confocal imaging of F-actin (phalloidin) in myocytes from treated mice; assay type: in vivo, mouse; conditions: myocytes from cTnI-G203S mice treated 10 μM 3×/wk/5 wk, Pre HCM Rx
Experimental: Following completion of treatment regimens, myocytes were isolated and prepared for confocal imaging based on previously described methods ([29]). Detailed methods are provided in SI Appendix.
Echocardiographic measurement of left ventricular function were performed on mice under light methoxyflurane anesthesia using an i13L probe on a Vivid 7 Dimension ultrasound system (GE Healthcare, Little Chalfont, United Kingdom) as previously described (4, 7). Echocardiographic measurements were taken on M-mode in triplicate from separate mice at a sweep speed of 200 mm/s. Each n represents the average of quantitative measurements from wt or cTnI-G203S mice for each treatment group. […] FS was calculated by the formula [(LVEDD-LVESD)/EDD] x 100.
Cell size was determined as previously described (16). […]
To measure kidney toxicity, urea and creatinine concentration was assessed using QuantiChrom Urea and Creatinine assay kits respectively (BioAssay Systems, Hayward CA). To measure liver toxicity, alanine transaminase (ALT) and aspartate transaminase (AST) concentration was measured using Alanine Transaminase and Aspartate Transaminase assay kits respectively (BioAssay Systems, Hayward CA). […]

wt mice = test: Echocardiography of treated wt mice; assay type: in vivo, mouse; conditions: 25-wk-old wt mice, 10 μM i.p. 3×/wk/5 wk from 20 wk; mean, n = 4
Experimental: (§1) Male mice expressing the human cTnI gene encoding the human disease-causing mutation cTnI-G203S were used for all studies. The mice develop hallmark features of HCM by 21 wk ([7], [13]). Male mice expressing the normal human cTnI gene were used as controls (wt). Ten-week-old mice were used for in vitro studies. For in vivo studies, 20- or 30-wk-old cTnI-G203S mice were treated with 10 μM AID-TAT or AID[S]-TAT via intraperitoneal injection, 3×/wk/5 wk. In vivo dose of AID-TAT or AID[S]-TAT (10 μM) was calculated based on blood volume, equating to ∼2 mg/kg total BW. Male animal models were used to eliminate potential differences in responses due to sex. Experiments were performed in a total of 21 wt (AID[S]-TAT), 6 wt (AID-TAT), 15 cTnI-G203S (AID[S]-TAT), and 26 cTnI-G203S (AID-TAT) mice. All animals were randomly assigned to treatment groups. All animal studies were approved by the Animal Ethics Committee of The University of Western Australia in accordance with the 2013 Australian Code for the Care and Use of Animals for Scientific Purposes ([58]).
(§2) Echocardiographic measurement of left ventricular function were performed on mice under light methoxyflurane anesthesia using an i13L probe on a Vivid 7 Dimension ultrasound system (GE Healthcare), as previously described ([13], [29], [30]). Each n represents the average of quantitative measurements from wt or cTnI-G203S mice for each treatment group. Detailed methods are provided in SI Appendix.
(§3) Echocardiographic measurement of left ventricular function were performed on mice under light methoxyflurane anesthesia using an i13L probe on a Vivid 7 Dimension ultrasound system (GE Healthcare, Little Chalfont, United Kingdom) as previously described (4, 7). Echocardiographic measurements were taken on M-mode in triplicate from separate mice at a sweep speed of 200 mm/s. Each n represents the average of quantitative measurements from wt or cTnI-G203S mice for each treatment group. Measurements of left ventricular end diastolic diameter (LVEDD), left ventricular end systolic diameter (LVESD), fractional shortening (FS), left ventricular posterior wall in diastole (LVDPW), left ventricular posterior wall in systole (LVSPW), interventricular septum in diastole (IVSD), interventricular septum in systole (IVSS) and end diastolic diameter (EDD) were made. FS was calculated by the formula [(LVEDD-LVESD)/EDD] x 100. […]
(§4) (BioAssay Systems, Hayward CA). All assays were performed as per manufacturer’s instructions, using a spectrophotometer (PowerWave XS).

cTnI-G203S mice = test: Echocardiography of treated cTnI-G203S mice; assay type: in vivo, mouse; conditions: Pre-HCM treatment (from 20 wk), 25-wk-old cTnI-G203S mice, 10 μM i.p. 3×/wk/5 wk; mean, n = 7 AID(S)-TAT, n = 6 AID-TAT
Experimental: as §1, §2, §3, §4

Compound: COC(=O)C1=C(C)NC(C)=C([N+](=O)[O-])C1c1ccccc1C(F)(F)F (stereo not drawn) [BayK(+), reference compound]
- effect on Ψm ([1]; myocytes from wt or cTnI-G203S mice treated with AID(S)-TAT or AID-TAT): did not significantly alter Ψm
- effect on metabolic activity (MTT) [2]: did not significantly alter metabolic activity

Compound: CC(C)n1c(=O)cc(N[C@@H](C)c2ccccc2)[nH]c1=O [MYK-461, Mavacamten]
- left ventricular wall thickness, FS, fibrosis and myocyte organization [3]: reduce left ventricular wall thickness, FS, and fibrosis, and improve myocyte organization

Compound: CC[C@H]1/C=C/C=C/C[C@@H](C)[C@H](O)[C@@](C)(O)C(=O)[C@@H](C)[C@H](O)[C@@H](C)C(=O)[C@@H](C)[C@H](O)[C@@H](C)/C=C/C(=O)O[C@@H]2[C@H](C)[C@H](CC1)O[C@]1(CC[C@H](C)[C@H](C[C@@H](C)O)O1)[C@H]2C [Oligomycin]
- effect on metabolic activity (MTT) [2]: significant decrease in metabolic activity

Compound: O=C1CN(/N=C/c2ccc(-c3ccc([N+](=O)[O-])cc3)o2)C(O)=N1 [dantrolene]
- effect on BayK(−)-induced increase in metabolic activity (MTT) [2]: but not with ryanodine receptor blocker dantrolene

Compound: COC(=O)C1=C(C)NC(C)=C(C(=O)OCC(C)C)C1c1ccccc1[N+](=O)[O-] (centres unmarked) [nisoldipine, reference compound]
- effect on BayK(−)-induced increase in Ψm ([1]; applied to myocytes from treated wt or cTnI-G203S mice, nisoldipine 15 μM): attenuated
- effect on BayK(−)-induced increase in metabolic activity (MTT) [2]: attenuated
- effect on BayK(−)-induced increase in flavoprotein oxidation [4]: attenuated

Compound: QKILGEWDLAQYTDQELE [AID(S)-TAT, reference compound]
- F-actin organization [5]: F-actin disorganization
- FS (wt mice): 35.08%
- HW:BW (wt mice): 4.33 mg/g
- IVSD (wt mice): 0.76 mm
- IVSS (wt mice): 0.86 mm
- LVDPW (wt mice): 1.26 mm
- LVEDD (wt mice): 3.56 mm
- LVESD (wt mice): 2.31 mm
- LVSPW (wt mice): 1.42 mm
- FS (cTnI-G203S mice): 47.39 ^* %
- HW:BW (cTnI-G203S mice): 5.14 ^* mg/g
- IVSD (cTnI-G203S mice): 0.85 ^* mm
- IVSS (cTnI-G203S mice): 0.96 ^* mm
- LVDPW (cTnI-G203S mice): 1.31 mm
- LVEDD (cTnI-G203S mice): 3.08 ^* mm
- LVESD (cTnI-G203S mice): 1.62 ^* mm
- LVSPW (cTnI-G203S mice): 1.43 mm

Compound: Ru360
- effect on BayK(−)-induced increase in metabolic activity (MTT) [2]: attenuated
